From patent publication US20040097502A1, “Pyrazoles as tgf inhibitors” (priority 2001, published 2004) come the findings set out here.

Each structure is given as a SMILES string.

Data set [1] deals with TGF-β signaling (PAI-1 promoter linked to firefly luciferase in HepG2 cells). The data set is described as follows: Assay 1: PAI-1 promoter luciferase reporter assay in HepG2 cells after exposure to TGF-β. It counts as cell-based. As to conditions: for IC50: Homo sapiens, HepG2 cells, PAI-1 promoter-luciferase, 1 ng/mL rhTGFβ-1, read-out: IC50 value in Assay 1 (inhibition of TGF-β induced firefly luciferase activity). As to the method:
The assay was performed in HepG2 cells stably transfected with the PAI-1 promoter (known to be a strong TGF-β responsive promoter) linked to a luciferase (firefly) reporter gene. The compounds were selected on their ability to inhibit luciferase activity after exposure to TGF-β. In addition cells were transfected with a second luciferase (Renilla) gene which was not driven by a TGF-β responsive promoter and was used as a toxicity control.
(96 well-)microplates are seeded, using a multidrop apparatus, with the stably transfected cell line at a concentration of 35000 cells per well in 200 μl of serum-containing medium. These plates are placed in a cell incubator.
18 to 24 hours later (Day 2), cell-incubation procedure is launched. Cells are incubated with TGF-β and a candidate compound at concentrations in the range 50 nM to 10 μM (final concentration of DMSO 1%). The final concentration of TGF-β (rhTGFβ-1) used in the test is 1 ng/mL. Cells are incubated with a candidate compound 15-30 mins prior to the addition of TGF-β. The final volume of the test reaction is 150 μl. Each well contains only one candidate compound and its effect on the PAI-1 promoter is monitored.
Columns 11 and 12 are employed as controls. Column 11 contains 8 wells in which the cells are incubated in the presence of TGF-β, without a candidate compound. Column 11 is used to determine the ‘reference TGF-β induced firefly luciferase value’ against which values measured in the test wells (to quantify inhibitory activity) may be compared. In wells A12 to D12, cells are grown in medium without TGF-β. The firefly luciferase values obtained from these positions are representive of the ‘basal firefly luciferase activity’. In wells E12 to H12, cells are incubated in the presence of TGF-β and 500 μM CPO (Cyclopentenone, Sigma), a cell toxic compound.
12 to 18 hours later (day 3), the luciferase quantification procedure is launched. The following reactions are performed using reagents obtained from a Dual Luciferase Assay Kit (Promega). Cells are washed and lysed with the addition of 10 μl of passive lysis buffer (Promega). Following agitation (15 to 30 mins), luciferase activities of the plates are read in a dual-injector luminometer (BMG lumistar). For this purpose, 50 μl of luciferase assay reagent and 50 μl of ‘Stop & Glo’ buffer are injected sequentially to quantify the activities of both luciferases. The mean Luciferase activity value obtained in wells A11 to H11 (Column 11, TGF-β only) is considered to represent 100% and values obtained in wells A12 to D12 (cells in medium alone) give a basal level (0%). For each of the compounds tested, a concentration response curve is constructed from which an IC50 value can be determined graphically.

As for `O=C1C=CCC1` [CPO, Cyclopentenone, reference compound], the “firefly and renilla luciferase activities (toxicity control)” value in data set [1] (500 μM CPO in the presence of TGF-β, % of those obtained in column 11 (TGF-β only)) was “around 50%”.

The compound `Clc1ccc(Nc2cc(-c3c[nH]nc3-c3ccccn3)ccn2)cc1` [Example 1] gave a melting point of 216 °C. Besides, in data set [1], the IC50 is ≤ 5 µM.

Compound `Fc1ccc(Nc2cc(-c3c[nH]nc3-c3ccccn3)ccn2)cc1` [Example 3] yielded a melting point of 200 °C. In data set [1], the IC50 was ≤ 5 µM.

As to `c1ccc(-c2n[nH]cc2-c2ccnc(NCc3ccco3)c2)nc1` [Example 4], the melting point amounted to 200 °C. Besides, the IC50 in data set [1] is ≤ 5 µM.

In turn, `CS(=O)(=O)c1cccc(Nc2cc(-c3c[nH]nc3-c3ccccn3)ccn2)c1` [Example 5] had a melting point of 146 °C. Further, in data set [1], the IC50 was ≤ 5 µM.

Regarding `N#Cc1cccc(Nc2cc(-c3c[nH]nc3-c3ccccn3)ccn2)c1` [Example 6], the melting point turned out to be 228 °C. For the same compound, the 50% inhibitory concentration (IC50) in data set [1] is ≤ 5 µM.

On to `COc1cc(Nc2cc(-c3c[nH]nc3-c3ccccn3)ccn2)ccc1C#N` [Example 7], for which the melting point was found to be 280 °C. Further, the IC50 in data set [1] was ≤ 5 µM.

Turning to `c1ccc(-c2n[nH]cc2-c2ccnc(Nc3cccc(OCCN4CCCCC4)c3)c2)nc1` [Example 8], the melting point amounted to 115 °C. The IC50 in data set [1] is ≤ 5 µM.

`c1ccc(-c2n[nH]cc2-c2ccnc(Nc3cccc(OCCN4CCCC4)c3)c2)nc1` [Example 9]: the melting point is 141 °C. Besides, the concentration for half-maximal inhibition (IC50) in data set [1] is ≤ 5 µM.

In turn, `Clc1cccc(Nc2cc(-c3c[nH]nc3-c3ccccn3)ccn2)c1` [Example 10] showed a melting point of 205 °C. The IC50 in data set [1] is ≤ 5 µM.

For `Cc1cccc(Nc2cc(-c3c[nH]nc3-c3ccccn3)ccn2)c1` [Example 11, [4-(3-Pyridin-2-yl-1H-pyrazol-4-yl)-pyridin-2-yl]-m-tolyl-amine], the melting point came out at 194 °C. The 50% inhibitory concentration (IC50) in data set [1] was ≤ 5 µM.

As for `c1ccc(-c2n[nH]cc2-c2ccnc(Nc3ccc(OCCN4CCCC4)cc3)c2)nc1` [Example 12, [4-(3-Pyridin-2-yl-1H-pyrazol-4-yl)-pyridin-2-yl]-[4-(2-pyrrolidin-1-yl-ethoxy)-phenyl]-amine], the melting point came to 224 °C. The IC50 in data set [1] is ≤ 5 µM.

Compound `COc1ccc(Nc2cc(-c3c[nH]nc3-c3ccccn3)ccn2)cc1OC` [Example 13, (3,4-Dimethoxy-phenyl)-[4-(3-pyridin-2-yl-1H-pyrazol-4-yl)-pyridin-2-yl]-amine] displayed a melting point of 210 °C. Besides, in data set [1], the IC50 is ≤ 5 µM.

`Cc1cc(Nc2cc(-c3c[nH]nc3-c3ccccn3)ccn2)ccc1Cl` [Example 14, (4-Chloro-3-methyl-phenyl)-[4-(3-pyridin-2-yl-1H-pyrazol-4-yl)-pyridin-2-yl]-amine]: the melting point was determined as 212 °C. The IC50 in data set [1] was ≤ 5 µM.

`N#Cc1cc(Nc2cc(-c3c[nH]nc3-c3ccccn3)ccn2)ccc1Cl` [Example 15, 2-Chloro-5-[4-(3-pyridin-2-yl-1H-pyrazol-4-yl)-pyridin-2-ylamino]-benzonitrile] showed a melting point of 250 °C. Further, the 50% inhibitory concentration (IC50) in data set [1] was ≤ 5 µM.

Take `Oc1ccc(Nc2cc(-c3c[nH]nc3-c3ccccn3)ccn2)cc1` [Example 16, 4-[4-(3-Pyridin-2-yl-1H-pyrazol-4-yl)-pyridin-2-ylamino]-phenol]: the melting point worked out at 268 °C. In addition, the IC50 in data set [1] is ≤ 5 µM.

Compound `COc1ccc(Nc2cc(-c3c[nH]nc3-c3ccccn3)ccn2)cc1` [Example 17, (4-Methoxy-phenyl)-[4-(3-pyridin-2-yl-1H-pyrazol-4-yl)-pyridin-2-yl]-amine] registered a melting point of 219 °C. The half-inhibitory concentration (IC50) in data set [1] was ≤ 5 µM.

In the case of `Cc1ccc(Nc2cc(-c3c[nH]nc3-c3ccccn3)ccn2)cc1` [Example 18, [4-(3-Pyridin-2-yl-1H-pyrazol-4-yl)-pyridin-2-yl]-p-tolyl-amine], the melting point came to 221 °C. The IC50 in data set [1] was ≤ 5 µM.

Take `FC(F)(F)Oc1cccc(Nc2cc(-c3c[nH]nc3-c3ccccn3)ccn2)c1` [Example 19, [4-(3-Pyridin-2-yl-1H-pyrazol-4-yl)-pyridin-2-yl]-(3-trifluoromethoxy-phenyl)-amine]: the melting point was 102.8 °C. Besides, the half-inhibitory concentration (IC50) in data set [1] was ≤ 5 µM.

With `Cc1ccc(Nc2cc(-c3c[nH]nc3-c3ccccn3)ccn2)cc1C` [Example 20, (3,4-Dimethyl-phenyl)-[4-(3-pyridin-2-yl-1H-pyrazol-4-yl)-pyridin-2-yl]-amine], the melting point was determined as 220 °C. Besides, in data set [1], the IC50 was ≤ 5 µM.

For `FC(F)(F)c1ccc(Nc2cc(-c3c[nH]nc3-c3ccccn3)ccn2)cc1` [Example 21, [4-(3-Pyridin-2-yl-1H-pyrazol-4-yl)-pyridin-2-yl]-(4-trifluoromethyl-phenyl)-amine], the melting point worked out at 207 °C. In data set [1], the IC50 is ≤ 5 µM.

Turning to `CC(C)Oc1cccc(Nc2cc(-c3c[nH]nc3-c3ccccn3)ccn2)c1` [Example 22, (3-Isopropoxy-phenyl)-[4-(3-pyridin-2-yl-1H-pyrazol-4-yl)-pyridin-2-yl]-amine], the melting point stood at 218 °C. Besides, the half-maximal inhibitory concentration (IC50) in data set [1] was ≤ 5 µM.

`CS(=O)(=O)c1ccc(Nc2cc(-c3c[nH]nc3-c3ccccn3)ccn2)cc1` [Example 23, (4-Methanesulfonyl-phenyl)-[4-(3-pyridin-2-yl-1H-pyrazol-4-yl)-pyridin-2-yl]-amine] registered a melting point of 134 °C. For the same compound, in data set [1], the concentration for half-maximal inhibition (IC50) is ≤ 5 µM.

With `COc1cc(Nc2cc(-c3c[nH]nc3-c3cccc(C)n3)ccn2)ccc1C#N` [Example 24, 2-Methoxy-4-{4-[3-(6-methyl-pyridin-2-yl)-1H-pyrazol-4-yl]-pyridin-2-ylamino}-benzonitrile], the melting point worked out at 125 °C. In data set [1], the IC50 is ≤ 5 µM.

Consider `O=C(c1ccc(Nc2cc(-c3c[nH]nc3-c3ccccn3)ccn2)cc1)N1CCOCC1` [Example 25, Morpholin-4-yl-{4-[4-(3-pyridin-2-yl-1H-pyrazol-4-yl)-pyridin-2-ylamino]-phenyl}methanone], for which the melting point turned out to be 240 °C. Besides, in data set [1], the IC50 was ≤ 5 µM.

Regarding `CN1CCN(C(=O)c2ccc(Nc3cc(-c4c[nH]nc4-c4ccccn4)ccn3)cc2)CC1` [Example 26, (4-Methyl-piperazin-1-yl)-{4-[4-(3-pyridin-2-yl-1H-pyrazol-4-yl)-pyridin-2-ylamino]-phenyl}-methanone], the melting point turned out to be 200 °C. In addition, in data set [1], the concentration for half-maximal inhibition (IC50) is ≤ 5 µM.

Consider `c1ccc(-c2n[nH]cc2-c2ccnc(Nc3ccc(OCCN4CCCCC4)cc3)c2)nc1` [Example 27, [4-(2-Piperidin-1-yl-ethoxy)phenyl]-[4-(3-pyridin-2-yl-1H-pyrazol-4-yl)-pyridin-2-yl]-amine], for which the melting point is 176 °C. Also, the IC50 in data set [1] was ≤ 5 µM.

The compound `Cn1ccnc1COc1cccc(Nc2cc(-c3c[nH]nc3-c3ccccn3)ccn2)c1` [Example 28, [3-(1-Methyl-1H-imidazol-2-ylmethoxy)-phenyl]-[4-(3-pyridin-2-yl-1H-pyrazol-4-yl)-pyridin-2-yl]-amine] registered a melting point of 120 °C. Also, in data set [1], the half-maximal inhibitory concentration (IC50) was ≤ 5 µM.
